Reference: ChEMBL document CHEMBL1275512, “Comparative in vitro activities of the investigational fluoroquinolone DC-159a and other antimicrobial agents against human mycoplasmas and ureaplasmas” (2008)
≈ marks a conversion by molar mass, not a printed value. Calls of active or inactive are those of the source. The calls are words filed in the database; no cut-off is given here.

Columns and labels:
Ureaplasma urealyticum = test: Antimicrobial activity against Ureaplasma urealyticum by broth microdilution method; type: functional
Ureaplasma parvum [1] = test: Antimicrobial activity against Ureaplasma parvum by broth microdilution method; type: functional
Ureaplasma parvum [2] = test: Antimicrobial activity against fluoroquinolone-resistant Ureaplasma parvum by broth microdilution method; type: functional
Mycoplasma genitalium = test: Antimicrobial activity against Mycoplasma genitalium by broth microdilution method; type: functional; conditions: Mycoplasmoides genitalium
[3] = tested on: Mycoplasmoides pneumoniae; test: Bactericidal activity against Mycoplasma pneumoniae assessed as log reduction in bacterial load at MIC after 24 hrs; type: functional
Mycoplasma fermentans = test: Antimicrobial activity against Mycoplasma fermentans by broth microdilution method; type: functional; conditions: Mycoplasmopsis fermentans
[4] = tested on: Mycoplasmoides pneumoniae; test: Bactericidal activity against Mycoplasma pneumoniae assessed as log reduction in bacterial load at MIC after 72 hrs; type: functional
[5] = tested on: Mycoplasmoides pneumoniae; test: Antimicrobial activity against Mycoplasma pneumoniae by broth microdilution method; type: functional
Metamycoplasma hominis = test: Antimicrobial activity against Mycoplasma hominis by broth microdilution method; type: functional
[6] = tested on: Mycoplasmoides pneumoniae; test: Bactericidal activity against Mycoplasma pneumoniae at 8 X MIC after 120 hrs; type: functional, organism-based
[7] = tested on: Mycoplasmoides pneumoniae; test: Bactericidal activity against Mycoplasma pneumoniae at MIC after 48 hrs; type: functional, organism-based

| MIC [5] | Structure (SMILES) | MIC50 (Ureaplasma urealyticum) | MIC90 (Ureaplasma urealyticum) | MIC50 (Ureaplasma parvum [1]) | MIC90 (Ureaplasma parvum [1]) | MIC (Ureaplasma parvum [2]) | MIC (Mycoplasma genitalium) | FC [3] | MIC50 (Mycoplasma fermentans) | MIC90 (Mycoplasma fermentans) | FC [4] | MIC50 [5] | MIC90 [5] | MIC50 (Metamycoplasma hominis) | MIC90 (Metamycoplasma hominis) | Activity [6] | MIC (Ureaplasma parvum [1]) | MIC (Ureaplasma urealyticum) | Activity [7] |
| --- | --- | --- | --- | --- | --- | --- | --- | --- | --- | --- | --- | --- | --- | --- | --- | --- | --- | --- | --- |
|  | COc1c(N2CC3(CC3)[C@](C)(N)C2)c(F)cc2c(=O)c(C(=O)O)cn([C@@H]3C[C@@H]3F)c12 | 0.5 µg/mL (≈ 1.19 µM) | 1 µg/mL (≈ 2.38 µM) | 0.5 µg/mL (≈ 1.19 µM) | 2 µg/mL (≈ 4.77 µM) | 4 µg/mL (≈ 9.54 µM) | 0.016 µg/mL (≈ 0.0381 µM) | 3 | 0.016 µg/mL (≈ 0.0381 µM) | 0.032 µg/mL (≈ 0.0763 µM) | 3 | 0.063 µg/mL (≈ 0.15 µM) | 0.063 µg/mL (≈ 0.15 µM) | 0.125 µg/mL (≈ 0.298 µM) | 0.25 µg/mL (≈ 0.596 µM) |  |  |  |  |
| ≤ 0.001 µg/mL | CC[C@H]1OC(=O)[C@H](C)[C@@H](O[C@H]2C[C@@](C)(OC)[C@@H](O)[C@H](C)O2)[C@H](C)[C@@H](O[C@@H]2O[C@H](C)C[C@H](N(C)C)[C@H]2O)[C@](C)(O)C[C@@H](C)CN(C)[C@H](C)[C@@H](O)[C@]1(C)O [AZITHROMYCIN] | 2 µg/mL (≈ 2.67 µM) | 4 µg/mL (≈ 5.34 µM) | 1 µg/mL (≈ 1.34 µM) | 2 µg/mL (≈ 2.67 µM) |  | ≤ 0.001 µg/mL |  |  |  |  | ≤ 0.001 µg/mL | ≤ 0.001 µg/mL |  |  |  |  |  |  |
|  | O=C(O)c1cn(C2CC2)c2cc(N3CCNCC3)c(F)cc2c1=O [CIPROFLOXACIN] | 4 µg/mL (≈ 12.1 µM) | 8 µg/mL (≈ 24.1 µM) | 2 µg/mL (≈ 6.04 µM) | 16 µg/mL (≈ 48.3 µM) | 32 µg/mL (≈ 96.6 µM) | 0.5 µg/mL (≈ 1.51 µM) |  | 0.063 µg/mL (≈ 0.19 µM) | 0.125 µg/mL (≈ 0.377 µM) |  | 2 µg/mL (≈ 6.04 µM) | 4 µg/mL (≈ 12.1 µM) | 0.5 µg/mL (≈ 1.51 µM) | 1 µg/mL (≈ 3.02 µM) |  |  |  |  |
|  | C[C@H]1c2cccc(O)c2C(=O)C2=C(O)[C@]3(O)C(=O)C(C(N)=O)=C(O)[C@@H](N(C)C)[C@@H]3[C@@H](O)[C@@H]21.O [DOXYCYCLINE] | 0.125 µg/mL | 0.5 µg/mL | 0.125 µg/mL | 2 µg/mL |  | 0.032 µg/mL |  | 0.25 µg/mL | 1 µg/mL |  | 0.25 µg/mL | 0.5 µg/mL | 2 µg/mL | 8 µg/mL |  |  |  |  |
|  | CC[C@H]1OC(=O)[C@H](C)[C@@H](O[C@H]2C[C@@](C)(OC)[C@@H](O)[C@H](C)O2)[C@H](C)[C@@H](O[C@@H]2O[C@H](C)C[C@H](N(C)C)[C@H]2O)[C@](C)(O)C[C@@H](C)C(=O)[C@H](C)[C@@H](O)[C@]1(C)O [ERYTHROMYCIN] | 2 µg/mL (≈ 2.73 µM) | 4 µg/mL (≈ 5.45 µM) | 1 µg/mL (≈ 1.36 µM) | 4 µg/mL (≈ 5.45 µM) |  | ≤ 0.001 µg/mL |  | 0.032 µg/mL (≈ 0.0436 µM) | 0.125 µg/mL (≈ 0.17 µM) |  | 0.004 µg/mL (≈ 0.00545 µM) | 0.004 µg/mL (≈ 0.00545 µM) | 0.016 µg/mL (≈ 0.0218 µM) | 0.032 µg/mL (≈ 0.0436 µM) | Active |  |  |  |
|  | C[C@H]1COc2c(N3CCN(C)CC3)c(F)cc3c(=O)c(C(=O)O)cn1c23.C[C@H]1COc2c(N3CCN(C)CC3)c(F)cc3c(=O)c(C(=O)O)cn1c23.O [LEVOFLOXACIN] | 1 µg/mL | 1 µg/mL | 0.5 µg/mL | 2 µg/mL | 16 µg/mL | 1 µg/mL |  | 0.063 µg/mL | 0.125 µg/mL |  | 0.5 µg/mL | 1 µg/mL | 0.25 µg/mL | 0.5 µg/mL |  | 0.5 µg/mL |  |  |
|  | COc1c(N2C[C@@H]3CCCN[C@@H]3C2)c(F)cc2c(=O)c(C(=O)O)cn(C3CC3)c12 [MOXIFLOXACIN] | 0.25 µg/mL (≈ 0.623 µM) | 0.5 µg/mL (≈ 1.25 µM) | 0.5 µg/mL (≈ 1.25 µM) | 2 µg/mL (≈ 4.98 µM) | 4 µg/mL (≈ 9.96 µM) | 0.016 µg/mL (≈ 0.0399 µM) |  | 0.032 µg/mL (≈ 0.0797 µM) | 0.063 µg/mL (≈ 0.157 µM) |  | 0.125 µg/mL (≈ 0.311 µM) | 0.125 µg/mL (≈ 0.311 µM) | 0.063 µg/mL (≈ 0.157 µM) | 0.063 µg/mL (≈ 0.157 µM) |  |  | 0.25 µg/mL (≈ 0.623 µM) | Active |
|  | CN(C)[C@@H]1C(O)=C(C(N)=O)C(=O)[C@@]2(O)C(O)=C3C(=O)c4c(O)cccc4[C@@](C)(O)[C@H]3C[C@@H]12 [TETRACYCLINE] | 0.5 µg/mL (≈ 1.13 µM) | 2 µg/mL (≈ 4.5 µM) | 0.5 µg/mL (≈ 1.13 µM) | 8 µg/mL (≈ 18 µM) |  | 0.25 µg/mL (≈ 0.563 µM) |  | 0.5 µg/mL (≈ 1.13 µM) | 1 µg/mL (≈ 2.25 µM) |  | 0.5 µg/mL (≈ 1.13 µM) | 1 µg/mL (≈ 2.25 µM) | 0.5 µg/mL (≈ 1.13 µM) | 16 µg/mL (≈ 36 µM) |  |  |  |  |
